Measured values published in patent publication US8383637B2, “2-amino-quinazoline derivatives useful as inhibitors of β-secretase (BACE)” (Jansssen Pharmaceutica N.V., priority 2004, dated 2013).
Values joined by “and” are separate entries in the source; they are usually repeats but may differ in a detail not shown here. Equal values may be shown once. Read-outs that look alike come from different tables or passages of the source.

Assays:
Format in all cases: biochemical
β-secretase(BACE) [1] = molecular target: T1, β-secretase(BACE) (Homo sapiens, UniProt P56817); test: BACE Assay-1 (MCA-substrate, IC50)
T1 construct: purchased Panvera
Experimental: The following standards are reagents were used in this assay: Sodium Citrate trisodium salt dihydrate (Sigma), Citric Acid monohydrate (Merck), PEG8000 (Sigma), MCA-substrate (Bachem), β-secretase (BACE) (Panvera), 96-well plate zwart (Costar (Elscolab)), StatVal (Bachem).
The following standard assay buffer solution was prepared and used in this assay: 0.05 M, pH 5.0 mixture of sodium citrate trisodium salt dihydrate (9.56 g), citric acid monohydrate (3.68 g) and PEG8000 (0.50 g).
The MCA-substrate stock solution was prepared by mixing 10 mg MCA-substrate with 5 mL DMSO for a final solution concentration of 2.0 mg/mL. The substrate work solution was prepared by mixing 0.1 mL substrate in 1.90 mL assay buffer for a final concentration of 0.05 mM. The β-secretase (BACE) work solution was prepared by mixing 8 μL BACE in 2 mL assay buffer for a final concentration of 10 μg/mL.
The screen procedure for this assay was as follows. 60 μL of assay buffer was pippeted into each well of a 96-well plate. To each well was then pipetted 1 μL of test compound at the selected concentration. To each well was then added 20 μL of the β-secretase work solution and 20 μL of the MCA-substrate stock solution.
The procedure for the blank was as follows. 80 μL of assay buffer was pipetted into each well to be used as a blank control. To each well was then added 1 μL of DMSO and 20 μL of MCA-substrate solution in each well.
The procedure for the positive control was as follows. 60 μL of assay buffer was pipetted into each well to be used as a positive control. To each well was then added 1 μL of DMSO, 20 μL of BACE work solution and 20 μL of MCA-substrate stock solution.
For test compounds, measured at multiple concentrations, the measured T0 and T60 values were used to calculate an IC50 value using Graphpad Software (or PIR).

β-secretase(BACE) [2] = molecular target: T1, β-secretase(BACE); test: BACE Assay-2 (FS1 substrate, IC50 and Ki); conditions: procedure of Example 159, FS1 substrate
β-secretase(BACE) [3] = molecular target: T1, β-secretase(BACE); test: BACE FS1% Inhibition Assay; conditions: FS1 substrate; for % Inhibition (FS) 3 μM / inhibition at 3 µM: 3 μM test compound; for inhibition at 0.3 µM: read-out: % Inhibition (FS) 0.3 μM; for inhibition at 1 µM: read-out: % Inhibition (FS) 1 μM; for inhibition at 3 µM: read-out: % Inhibition (FS) 3 μM; for inhibition at 10 µM: read-out: % Inhibition (FS) 10 μM
Method in brief: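 Human BACE (4 μg/mL working solution) preincubated 20 min at room temperature with compound, then FS1 substrate (300 μg/mL working solution) added and incubated 1 h at room temperature. Percent inhibition calculated at each compound concentration against blank and vehicle controls.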

[4] = procedure of Example 158, read-out: IC50 μM (158)

T1 sequence (P56817 46-501): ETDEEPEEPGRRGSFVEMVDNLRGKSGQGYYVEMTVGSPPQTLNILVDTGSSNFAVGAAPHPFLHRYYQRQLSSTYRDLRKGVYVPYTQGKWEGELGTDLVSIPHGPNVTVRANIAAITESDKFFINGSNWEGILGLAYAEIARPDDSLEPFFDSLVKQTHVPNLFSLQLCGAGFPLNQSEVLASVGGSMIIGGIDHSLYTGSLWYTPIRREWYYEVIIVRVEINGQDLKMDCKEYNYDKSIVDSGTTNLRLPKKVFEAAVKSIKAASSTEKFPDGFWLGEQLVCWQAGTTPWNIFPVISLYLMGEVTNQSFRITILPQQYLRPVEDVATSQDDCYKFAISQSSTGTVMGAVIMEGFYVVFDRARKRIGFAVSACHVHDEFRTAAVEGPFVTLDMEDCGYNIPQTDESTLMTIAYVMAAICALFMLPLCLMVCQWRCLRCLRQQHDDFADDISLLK

Compound	IC50 (β-secretase(BACE) [1]; [4]) [µM]	Ki (β-secretase(BACE) [2]; read-out: Ki μM (159)) [µM]	inhibition at 0.3 µM (β-secretase(BACE) [3]; 0.3 μM test compound) [%]	inhibition at 1 µM (β-secretase(BACE) [3]; 1 μM test compound) [%]	inhibition at 3 µM (β-secretase(BACE) [3]) [%]	also measured
CCCC(CCCC(=O)N(C)C1CCN(C)CC1)N1Cc2cc(Oc3ccccc3)ccc2N=C1N (stereo not drawn) [Compound 106]	0.15	0.23				% Inhibition (FS) 3 μM (β-secretase(BACE) [3]): 103%; % Inhibition (FS) 10 μM (β-secretase(BACE) [3]; 10 μM test compound): 114%
NC1=Nc2ccc(Oc3ccccc3)cc2CN1CCC(=O)NC1C2CC3CC(C2)CC1C3 (stereo not drawn) [Compound 221, N-Adamantan-2-yl-3-(2-amino-6-phenoxy-4H-quinazolin-3-yl) propionamide]	0.011		100	115	118	IC50 (β-secretase(BACE) [1]): 0.023 µM; Ki (β-secretase(BACE) [2]; Ki μM (159)): 0.025 µM and 0.029 µM; % Inhibition (FS) 0.3 μM (β-secretase(BACE) [3]; 0.3 μM test compound, 0.3 µM): 110%; % Inhibition (FS) 1 μM (β-secretase(BACE) [3]; 1 μM test compound, 1 µM): 119%; % Inhibition (FS) 3 μM (β-secretase(BACE) [3]; 3 µM): 121%
NC1=Nc2ccc(Oc3ccccc3)cc2CN1CCC(=O)NC1CCCCC1 [Compound 178]	0.19	0.11	50	93	107	
CC(C)(C)C(=O)NCCN1Cc2cc(Oc3ccccc3)ccc2N=C1N [Compound 141]	0.15	0.08			100	inhibition at 10 µM (β-secretase(BACE) [3]; 10 μM test compound): 102%
CN(C(=O)c1cccc(CN2Cc3cc(-c4ccccc4Cl)ccc3N=C2N)c1)C1CCCCC1 [Compound 260]	0.15	0.21	53	86	112	
NC1=Nc2ccc(Oc3ccccc3)cc2CN1CCNC(=O)C1CCC1 [Compound 130]	0.45	0.21			101	inhibition at 10 µM (β-secretase(BACE) [3]; 10 μM test compound): 123%
CC(C)CCC(=O)NC[C@@H](C(C)C)N1Cc2cc(Oc3ccccc3)ccc2N=C1N [Compound 564]	0.018	0.011	112	119	129	
Cc1ccc(C(CCC(=O)N(C)C2CCCCC2)N2Cc3cc(Oc4ccccc4)ccc3N=C2N)cc1 (stereo not drawn) [Compound 421]	0.054		< 30	71	111	
CN(C(=O)c1cccc(CN2Cc3cc(-c4ccsc4)ccc3N=C2N)c1)C1CCCCC1 [Compound 164]	0.11	0.1	67	96	109	
NC1=Nc2ccc(Oc3ccccc3)cc2CN1CCNC(=O)C1CC1 [Compound 123]	1.2	0.3			71	inhibition at 10 µM (β-secretase(BACE) [3]; 10 μM test compound): 116%
CCCCS(=O)(=O)NCCN1Cc2cc(Oc3ccccc3)ccc2N=C1N [Compound 135, Butane-1-sulfonic acid [2-(2-amino-6-phenoxy-4H-quinazolin-3-yl)-ethyl]-amide]	0.89	0.29			89	inhibition at 10 µM (β-secretase(BACE) [3]; 10 μM test compound): 118%
COc1cccc(-c2ccc3c(c2)CN(Cc2cccc(C(=O)N(C)C4CCCCC4)c2)C(N)=N3)c1 [Compound 165]	0.19	0.28	< 30	72	101	
NC1=Nc2ccc(Oc3ccccc3)cc2CN1CCNC(=O)C12CC3CC(CC(C3)C1)C2 [Compound 131]	0.1	0.17			115	inhibition at 10 µM (β-secretase(BACE) [3]; 10 μM test compound): 130%
CN(C(=O)c1cccc(CN2Cc3cc(-c4ccccc4CO)ccc3N=C2N)c1)C1CCCCC1 [Compound 174]	0.085	0.07	85	106	111	
CC(C)[C@H](CCC(=O)N(C)C1CCCCC1)N1Cc2cc(Oc3ccccc3)ccc2N=C1N [Compound 450]	0.011	0.019	97	112	121	
CN(C(=O)c1cccc(CN2Cc3cc(Sc4ccccc4)ccc3N=C2N)c1)C1CCCCC1 [Compound 476]	0.067	0.28	19.9	66	102	
NC1=Nc2ccc(Oc3ccccc3)cc2CN1[C@@H](CNC(=O)C1CCCCC1)C1CCCCC1 [Compound 485, Cyclohexanecarboxylic acid [2-(2-amino-6-phenoxy-4H-quinazolin-3-yl)-2-(R)-cyclohexyl-ethyl]-amide]	0.012	0.017	100	112	123	
CN(C(=O)c1cccc(CN2Cc3cc(-c4c(Cl)cccc4Cl)ccc3N=C2N)c1)C1CCCCC1 [Compound 259]	0.25	0.25	< 30	66	97	
NC1=Nc2ccc(C(=O)c3ccccc3)cc2CN1CCCOc1ccccc1 [Compound 8]	3.1	1.2				IC50 (β-secretase(BACE) [2]): 15 µM
CCCN1Cc2cc(Oc3cccc(NS(=O)(=O)c4ccc(-c5cc(C(F)(F)F)on5)s4)c3)ccc2N=C1N [Compound 255]	> 10					

Compound	IC50 (β-secretase(BACE) [1]; [4]) [µM]	Ki (β-secretase(BACE) [2]; read-out: Ki μM (159)) [µM]	inhibition at 0.3 µM (β-secretase(BACE) [3]; 0.3 μM test compound) [%]	inhibition at 1 µM (β-secretase(BACE) [3]; 1 μM test compound) [%]	inhibition at 3 µM (β-secretase(BACE) [3]) [%]	also measured
CCCN1Cc2cc(Oc3cccc(NS(=O)(=O)c4cccc(OC)c4)c3)ccc2N=C1N [Compound 271]	0.39					
CCCN1Cc2cc(Oc3cccc(NS(=O)(=O)c4ccc(-c5ccccn5)s4)c3)ccc2N=C1N [Compound 251]	> 10					
CCCN1Cc2cc(Oc3cccc(NS(=O)(=O)c4ccc(NC(C)=O)cc4)c3)ccc2N=C1N [Compound 246]	> 10					
CN(Cc1ccccc1)C(=O)CCN1Cc2cc(C(=O)c3ccccc3)ccc2N=C1N [Compound 43]	7.2					
CCCN1Cc2cc(Oc3cccc(NS(=O)(=O)c4cccc(C#N)c4)c3)ccc2N=C1N [Compound 270]	2.37					
CCCN1Cc2cc([S+]([O-])c3cccc(NS(=O)(=O)c4ccccc4)c3)ccc2N=C1N (stereo not drawn) [Compound 387, N-[3-(2-Amino-3-propyl-3,4-dihydro-quinazoline-6-sulfinyl)-phenyl]-benzenesulfonamide]	3.3					
NC1=Nc2ccc(Oc3cccc(NS(=O)(=O)c4ccccc4)c3)cc2CN1CCCCCO [Compound 380]	0.71					
CN(C(=O)CCN1Cc2cc(C(=O)c3ccccc3)ccc2N=C1N)C1CCCc2ccccc21 (stereo not drawn) [Compound 45]	2.7					
CCCN1Cc2cc(Oc3cccc(NS(C)(=O)=O)c3)ccc2N=C1N [Compound 237]	> 10					
COc1cc(OC)cc(Oc2ccc3c(c2)CN(CCCCC(=O)N(C)C2CCCCC2)C(N)=N3)c1 [Compound 288]	> 10					
CN(C1CCCCC1)S(=O)(=O)CCN1Cc2cc(C(=O)c3ccccc3)ccc2N=C1N [Compound 57, 2-(2-Amino-6-benzoyl-4H-quinazolin-3-yl)-ethanesulfonic acid cyclohexyl-methyl-amide]	1.4					
CCCN1Cc2cc(Oc3cccc(NS(=O)(=O)c4c(C)noc4C)c3)ccc2N=C1N [Compound 242]	> 10					
CN(C1CCCCC1)S(=O)(=O)CCN1Cc2cc(Oc3cccc(NC(=O)OCc4ccccc4)c3)ccc2N=C1N [Compound 71]	2.6					
CCOC(=O)N1CCC(N2Cc3cc(Oc4cccc(NS(=O)(=O)c5c(C)cc(C)cc5C)c4)ccc3N=C2N)CC1 [Compound 362]	0.53					
CN(C(=O)CCN1Cc2cc(-c3noc4cc(F)ccc34)ccc2N=C1N)C1CCCCC1 [Compound 37]	12					
CN(C(=O)CCN1Cc2cc(Cc3ccccc3)ccc2N=C1N)C1CCCCC1 [Compound 36, 3-(2-Amino-6-benzyl-4H-quinazolin-3-yl)-N-cyclohexyl-N-methyl-propionamide]	2.3					
CCCN1Cc2cc(Oc3cccc(NS(=O)(=O)c4ccc(OC)cc4)c3)ccc2N=C1N [Compound 272]	0.52					
CN(Cc1ccccc1)C(=O)CCCCN1Cc2cc(C(=O)c3ccccc3)ccc2N=C1N [Compound 47]	4.2					
CCCN1Cc2cc(Oc3cccc(NS(=O)(=O)c4cccs4)c3)ccc2N=C1N [Compound 241]	0.49					
CCCN1Cc2cc(Oc3cccc(NS(=O)(=O)CCc4cccc5ccccc45)c3)ccc2N=C1N [Compound 281]	1.6					
